Results reported in patent US9707233B2, “Heterocyclylamines as PI3K inhibitors” (Incyte Corporation, priority 2011, dated 2017).

Target: PI3Kδ (p110δ/p85α) (Homo sapiens (Human), UniProt O00329)
Assay: PI3Kδ scintillation proximity assay (Example A3)
Assay type: biochemical
Details: 20 μM ATP, 20 μM PIP2, 4 nM PI3Kδ; read-out: PI3Kδ SPA IC50
Experimental: [γ-^33P]ATP (10 mCi/mL) was purchased from Perkin-Elmer (Waltham, Mass.). […] PI3Kδ (p110δ/p85α) was purchased from Millipore (Bedford, Mass.). ATP, MgCl2, DTT, EDTA, MOPS and CHAPS were purchased from Sigma-Aldrich (St. Louis, Mo.). Wheat Germ Agglutinin (WGA) YSi SPA Scintillation Beads was purchased from GE healthcare life sciences (Piscataway, N.J.).
The kinase reaction was conducted in polystyrene 384-well matrix white plate from Thermo Fisher Scientific in a final volume of 25 μL. Inhibitors were first diluted serially in DMSO and added to the plate wells before the addition of other reaction components. The final concentration of DMSO in the assay was 0.5%. The PI3K assays were carried out at room temperature in 20 mM MOPS, pH 6.7, 10 mM MgCl2, 5 mM DTT and CHAPS 0.03%. Reactions were initiated by the addition of ATP, the final reaction mixture consisted of 20 μM PIP2, 20 μM ATP, 0.2 μCi [γ-^33P]ATP, 4 nM PI3Kδ. […] 25 mM EDTA, 400 μM ATP. The final concentration of SPA beads was 1.0 mg/mL. After the plate sealing, plates were shaken overnight at room temperature and centrifuged at 1800 rpm for 10 minutes, the radioactivity of the product was determined by scintillation counting on Topcount (Perkin-Elmer). IC50 determination was performed by fitting the curve of percent control activity versus the log of the inhibitor concentration using the GraphPad Prism 3.0 software.

Chain of PI3Kδ (p110δ/p85α) (O00329 whole entry): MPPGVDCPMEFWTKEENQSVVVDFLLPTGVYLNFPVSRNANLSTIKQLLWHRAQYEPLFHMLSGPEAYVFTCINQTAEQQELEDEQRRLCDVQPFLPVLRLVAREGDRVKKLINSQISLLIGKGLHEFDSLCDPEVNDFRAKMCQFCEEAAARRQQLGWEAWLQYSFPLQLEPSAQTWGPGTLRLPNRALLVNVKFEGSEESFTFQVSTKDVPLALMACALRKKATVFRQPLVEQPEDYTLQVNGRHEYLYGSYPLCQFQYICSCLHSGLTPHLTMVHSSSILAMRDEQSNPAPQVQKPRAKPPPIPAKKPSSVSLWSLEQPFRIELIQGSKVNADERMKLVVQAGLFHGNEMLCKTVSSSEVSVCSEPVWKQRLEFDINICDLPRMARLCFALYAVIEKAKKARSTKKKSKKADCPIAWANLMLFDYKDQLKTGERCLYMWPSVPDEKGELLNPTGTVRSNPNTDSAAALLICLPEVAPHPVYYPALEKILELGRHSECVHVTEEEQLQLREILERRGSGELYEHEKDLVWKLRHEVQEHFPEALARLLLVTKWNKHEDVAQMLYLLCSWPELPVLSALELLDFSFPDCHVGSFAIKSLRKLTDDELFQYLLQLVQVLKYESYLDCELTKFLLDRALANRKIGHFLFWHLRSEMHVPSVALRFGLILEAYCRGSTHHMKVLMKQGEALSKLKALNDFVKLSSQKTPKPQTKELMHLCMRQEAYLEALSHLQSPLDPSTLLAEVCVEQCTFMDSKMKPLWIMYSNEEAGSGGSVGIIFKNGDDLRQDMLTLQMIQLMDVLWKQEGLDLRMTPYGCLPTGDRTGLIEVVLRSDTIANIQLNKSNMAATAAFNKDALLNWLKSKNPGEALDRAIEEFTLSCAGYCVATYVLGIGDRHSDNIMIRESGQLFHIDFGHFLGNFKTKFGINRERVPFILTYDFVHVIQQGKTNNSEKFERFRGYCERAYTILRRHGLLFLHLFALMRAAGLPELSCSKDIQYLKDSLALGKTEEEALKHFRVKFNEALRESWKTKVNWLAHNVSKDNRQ
Chain of PI3Kδ (p110δ/p85α) (P27986 whole entry partner): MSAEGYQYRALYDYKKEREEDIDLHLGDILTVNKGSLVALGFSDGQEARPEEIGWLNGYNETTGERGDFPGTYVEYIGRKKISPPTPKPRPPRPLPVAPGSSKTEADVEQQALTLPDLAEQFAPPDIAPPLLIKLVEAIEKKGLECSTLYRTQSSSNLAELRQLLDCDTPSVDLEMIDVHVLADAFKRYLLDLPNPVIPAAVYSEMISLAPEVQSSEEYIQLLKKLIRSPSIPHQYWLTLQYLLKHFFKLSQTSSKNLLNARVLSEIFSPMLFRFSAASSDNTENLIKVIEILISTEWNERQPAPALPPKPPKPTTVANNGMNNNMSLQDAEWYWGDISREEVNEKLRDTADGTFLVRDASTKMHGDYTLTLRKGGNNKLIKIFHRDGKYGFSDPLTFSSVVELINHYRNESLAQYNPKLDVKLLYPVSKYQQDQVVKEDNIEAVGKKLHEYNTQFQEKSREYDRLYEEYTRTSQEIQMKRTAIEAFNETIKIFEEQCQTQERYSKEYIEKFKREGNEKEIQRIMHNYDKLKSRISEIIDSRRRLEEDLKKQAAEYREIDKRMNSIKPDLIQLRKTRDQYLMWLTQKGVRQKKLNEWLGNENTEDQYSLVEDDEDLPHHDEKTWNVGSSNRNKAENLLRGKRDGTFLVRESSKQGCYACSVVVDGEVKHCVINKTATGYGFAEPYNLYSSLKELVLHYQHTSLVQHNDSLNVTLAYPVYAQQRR

Row | SMILES | IC50
1 | COc1c(C(C)n2nc(C)c3c(N)ncnc32)cc(Cl)c(F)c1C1CN(CC(C)(C)O)C1 (racemic) [Example 70, 1-(3-{3-[1-(4-Amino-3-methyl-1H-pyrazolo[3,4-d]pyrimidin-1-yl)ethyl]-5-chloro-6-fluoro-2-methoxyphenyl}azetidin-1-yl)-2-methylpropan-2-ol] | ≤ 10 nM
2 | COc1c(C(C)n2nc(C)c3c(N)ncnc32)cc(Cl)c(C)c1CC1CC1 (single isomer, unassigned) [Example 193, 1-{1-[5-Chloro-3-(cyclopropylmethyl)-2-methoxy-4-methylphenyl]ethyl}-3-methyl-1H-pyrazolo[3,4-d]pyrimidin-4-amine] | 50 to 200 nM
3 | CCOc1c(C(C)n2nc(C)c3c(N)ncnc32)cc(Cl)c(C#N)c1C1CN(CCO)C1 (single isomer, unassigned) [Example 219, 4-[1-(4-Amino-3-methyl-1H-pyrazolo[3,4-d]pyrimidin-1-yl)ethyl]-6-chloro-3-ethoxy-2-[1-(2-hydroxyethyl)azetidin-3-yl]benzonitrile] | ≤ 10 nM
4 | COc1c(C(C)n2nc(C)c3c(N)ncnc32)cc(Cl)c(C)c1-c1ccnc(C(=O)N(C)CCO)c1 (racemic) [Example 19, 4-{3-[1-(4-amino-3-methyl-1H-pyrazolo[3,4-d]pyrimidin-1-yl)ethyl]-5-chloro-2-methoxy-6-methylphenyl}-N-(2-hydroxyethyl)-N-methylpyridine-2-carboxamide] | ≤ 10 nM
5 | CCOc1c(C(C)n2nc(C)c3c(N)ncnc32)cc(Cl)c(C#N)c1C1CNC(=O)C1 (single isomer, unassigned) [Example 349, 4-[1-(4-amino-3-methyl-1H-pyrazolo[3,4-d]pyrimidin-1-yl)ethyl]-6-chloro-3-ethoxy-2-(5-oxopyrrolidin-3-yl)benzonitrile] | ≤ 10 nM
6 | COc1c(C(C)n2nc(C)c3c(N)ncnc32)cc(Cl)c(C)c1C1CN(C(=O)C(C)(C)O)C1 (single isomer, unassigned) [Example 123, 1-(3-{3-[1-(4-Amino-3-methyl-1H-pyrazolo[3,4-d]pyrimidin-1-yl)ethyl]-5-chloro-2-methoxy-6-methylphenyl}azetidin-1-yl)-2-methyl-1-oxopropan-2-ol] | ≤ 10 nM
7 | COc1c(C(C)n2nc(C)c3c(N)ncnc32)cc(Cl)c(C)c1-c1cncc(C(=O)N(C)CCO)c1 (single isomer, unassigned) [Example 175, 5-{3-[1-(4-amino-3-methyl-1H-pyrazolo[3,4-d]pyrimidin-1-yl)ethyl]-5-chloro-2-methoxy-6-methylphenyl}-N-(2-hydroxyethyl)-N-methylnicotinamide] | ≤ 10 nM
8 | CCOc1c(C(C)n2nc(C)c3c(N)ncnc32)cc(Cl)c(C#N)c1C1CNC(=O)O1 (single isomer, unassigned) [323 (3rd peak), 4-[1-(4-amino-3-methyl-1H-pyrazolo[3,4-d]pyrimidin-1-yl)ethyl]-6-chloro-3-ethoxy-2-(2-oxo-1,3-oxazolidin-5-yl)benzonitrile] | 50 to 200 nM
9 | CCOc1c(C(C)n2nc(C)c3c(N)ncnc32)cc(Cl)c(F)c1C1CNC(=O)O1 (single isomer, unassigned) [Example 356, 5-{3-[1-(4-amino-3-methyl-1H-pyrazolo[3,4-d]pyrimidin-1-yl)ethyl]-5-chloro-2-ethoxy-6-fluorophenyl}-1,3-oxazolidin-2-one] | 50 to 200 nM
10 | CCOc1c(C(C)n2nc(C)c3c(N)ncnc32)cc(Cl)c(C)c1C1CN(CCO)C1 (racemic) [Example 95, 2-(3-{3-[1-(4-Amino-3-methyl-1H-pyrazolo[3,4-d]pyrimidin-1-yl)ethyl]-5-chloro-2-ethoxy-6-methylphenyl}azetidin-1-yl)ethanol bis(trifluoroacetate)] | ≤ 10 nM
11 | CCOc1c(C(C)n2nc(C)c3c(N)ncnc32)cc(Cl)c(C#N)c1C1CN(CC2CCOCC2)C1 (single isomer, unassigned) [Example 232, 4-[1-(4-Amino-3-methyl-1H-pyrazolo[3,4-d]pyrimidin-1-yl)ethyl]-6-chloro-3-ethoxy-2-[1-(tetrahydro-2H-pyran-4-ylmethyl)azetidin-3-yl]benzonitrile] | ≤ 10 nM
12 | CCOc1c(C(C)n2nc(C)c3c(N)ncnc32)cc(Cl)c(C#N)c1C1CNC(=O)C1 (single isomer, unassigned) [Example 352, 4-[1-(4-amino-3-methyl-1H-pyrazolo[3,4-d]pyrimidin-1-yl)ethyl]-6-chloro-3-ethoxy-2-(5-oxopyrrolidin-3-yl)benzonitrile] | ≤ 10 nM
13 | CCOc1c(C(C)n2nc(C)c3c(N)ncnc32)cc(Cl)c(C#N)c1C1CN(CC(C)C)C1 (single isomer, unassigned) [Example 216, 4-[1-(4-Amino-3-methyl-1H-pyrazolo[3,4-d]pyrimidin-1-yl)ethyl]-6-chloro-3-ethoxy-2-(1-isobutylazetidin-3-yl)benzonitrile] | ≤ 10 nM
14 | COc1c(C(C)n2nc(C)c3c(N)ncnc32)cc(Cl)c(C)c1C1CN(C(=O)c2cn[nH]c2)C1 (single isomer, unassigned) [Example 124, 1-(1-{5-Chloro-2-methoxy-4-methyl-3-[1-(1H-pyrazol-4-ylcarbonyl)azetidin-3-yl]phenyl}ethyl)-3-methyl-1H-pyrazolo[3,4-d]pyrimidin-4-amine] | ≤ 10 nM
15 | CCOc1c(C(C)n2nc(C)c3c(N)ncnc32)cc(Cl)c(C#N)c1C1CN(C(=O)C(C)(C)C)C1 (single isomer, unassigned) [Example 245, 4-[1-(4-Amino-3-methyl-1H-pyrazolo[3,4-d]pyrimidin-1-yl)ethyl]-6-chloro-2-[1-(2,2-dimethylpropanoyl)azetidin-3-yl]-3-ethoxybenzonitrile] | ≤ 10 nM
16 | COc1c(C(C)n2nc(C)c3c(N)ncnc32)cc(Cl)c(Cl)c1C1CN(C2COC2)C1 (single isomer, unassigned) [Example 304, 1-{1-[4,5-Dichloro-2-methoxy-3-(1-oxetan-3-ylazetidin-3-yl)phenyl]ethyl}-3-methyl-1H-pyrazolo[3,4-d]pyrimidin-4-amine] | ≤ 10 nM
17 | COc1c(C(C)n2nc(C)c3c(N)ncnc32)cc(Cl)c(C)c1-c1ccnc(N2CC(O)C2)c1 (single isomer, unassigned) [Example 187, 1-(4-(3-(1-(4-amino-3-methyl-1H-pyrazolo[3,4-d]pyrimidin-1-yl)ethyl)-5-chloro-2-methoxy-6-methylphenyl)pyridin-2-yl)azetidin-3-ol] | ≤ 10 nM
18 | CCOc1c(C(C)n2nc(C)c3c(N)ncnc32)cc(Cl)c(C#N)c1C1CN(C2CCOC2)C1 (single isomer, unassigned) [Example 227, 4-[1-(4-Amino-3-methyl-1H-pyrazolo[3,4-d]pyrimidin-1-yl)ethyl]-6-chloro-3-ethoxy-2-[1-(tetrahydrofuran-3-yl)azetidin-3-yl]benzonitrile] | ≤ 10 nM
19 | CCN1CC(c2c(Cl)c(Cl)cc(C(C)n3nc(C)c4c(N)ncnc43)c2OC)C1 (single isomer, unassigned) [Example 298, 1-{1-[4,5-Dichloro-3-(1-ethylazetidin-3-yl)-2-methoxyphenyl]ethyl}-3-methyl-1H-pyrazolo[3,4-d]pyrimidin-4-amine] | ≤ 10 nM
20 | CCOc1c(C(C)n2nc(C)c3c(N)ncnc32)cc(Cl)c(C#N)c1C1CN(C(=O)OC)C1 (single isomer, unassigned) [Example 252, Methyl 3-{3-[1-(4-amino-3-methyl-1H-pyrazolo[3,4-d]pyrimidin-1-yl)ethyl]-5-chloro-6-cyano-2-ethoxyphenyl}azetidine-1-carboxylate] | ≤ 10 nM
